# Assays:
# Experiment in all cases: Test E greenhouse herbicide test, pre- and postemergence
# Format in all cases: in vivo
# [1] = system: field bindweed (Convolvulus arvensis)
# Summary of the method: (§1)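 Greenhouse pots; preemergence on silt loam, postemergence on plants 1- to 4-leaf (2 to 18 cm) grown in peat, vermiculite and nutrient medium. Test chemicals formulated in non-phytotoxic solvent with surfactant. Ratings taken after 14 to 21 d.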
# [2] = system: beggarticks (hairy beggarticks, Bidens pilosa)
# Summary of the method: as §1
# [3] = system: panicum, fall (fall panicum, Panicum dichotomiflorum)
# Summary of the method: as §1
# [4] = system: crabgrass, large (large crabgrass, Digitaria sanguinalis); conditions: Preemergence
# Summary of the method: as §1
# [5] = system: momingglory (Ipomoea coccinea); conditions: Preemergence
# Summary of the method: as §1
# [6] = system: surinam grass (Brachiaria decumbens); conditions: Preemergence
# Summary of the method: as §1
# [7] = system: sandbur (southem sandbur, Cenchrus echinatus)
# Summary of the method: as §1
# [8] = system: goosegrass (Eleusine indica); conditions: Preemergence
# Summary of the method: as §1
# [9] = system: barnyardgrass (Echinochloa crus-galli)
# Summary of the method: as §1
# [10] = system: johnsongrass (Sorghum halepense); conditions: Preemergence
# Summary of the method: as §1
# [11] = system: velvetleaf (Abutilon theophrasti); conditions: Preemergence
# Summary of the method: as §1
# kochia (Kochia scoparia) = system: kochia (Kochia scoparia)
# Summary of the method: as §1
# [12] = system: foxtail, giant (giant foxtail, Setaria faberii); conditions: Preemergence
# Summary of the method: as §1
# [13] = system: nightshade (eastern black nightshade, Solanum ptycanthum); conditions: Preemergence
# Summary of the method: as §1
# [14] = system: ragweed (common ragweed, Ambrosia elatior)
# Summary of the method: as §1
# [15] = system: nutsedge, yellow (yellow nutsedge, Cyperus esculentus); conditions: Preemergence
# Summary of the method: as §1
# [16] = system: arrowleaf sida (Sida rhombifolia)
# Summary of the method: as §1
# [17] = 62 g ai/ha, Postemergence, scale 0 to 100 (0 no effect, 100 complete control)
# [18] = 62 g ai/ha, Preemergence, scale 0 to 100 (0 no effect, 100 complete control)
# [19] = 125 g ai/ha, Postemergence, scale 0 to 100 (0 no effect, 100 complete control)
# [20] = 125 g ai/ha, Preemergence, scale 0 to 100 (0 no effect, 100 complete control)
# [21] = Postemergence, 16 g ai/ha, visual, scale 0 no effect to 100 complete control
# [22] = Postemergence, 31 g ai/ha, visual, scale 0 no effect to 100 complete control
# [23] = Preemergence, 16 g ai/ha, scale 0 to 100, 0 no effect, 100 complete control
# [24] = Preemergence, 31 g ai/ha, scale 0 to 100, 0 no effect, 100 complete control
# [25] = 62 g ai/ha, scale 0 to 100 (0 no effect, 100 complete control)
# [26] = 125 g ai/ha, scale 0 to 100 (0 no effect, 100 complete control)
# [27] = 16 g ai/ha, scale 0 to 100, 0 no effect, 100 complete control
# [28] = 31 g ai/ha, scale 0 to 100, 0 no effect, 100 complete control
compound,measurement,setting,value
Cc1ccc2sc(C)c(-c3c(OC(=O)OC(C)C)c(C)nn(C)c3=O)c2c1 [Compound 66],"Plant response rating, Field Bindweed",[1]; [17],80
same,"Plant response rating, Field Bindweed",[1]; [18],50
same,"Plant response rating, Field Bindweed",[1]; [19],80
same,"Plant response rating, Field Bindweed",[1]; [20],40
same,"Plant response rating, Field Bindweed",[1]; [21],70
same,"Plant response rating, Field Bindweed",[1]; [22],60
same,"Plant response rating, Field Bindweed",[1]; [23],0
same,"Plant response rating, Field Bindweed",[1]; [24],5
same,"Plant response rating, Beggarticks",[2]; [17],90
same,"Plant response rating, Beggarticks",[2]; [18],95
same,"Plant response rating, Beggarticks",[2]; [19],100
same,"Plant response rating, Beggarticks",[2]; [20],100
same,"Plant response rating, Beggarticks",[2]; [21],75
same,"Plant response rating, Beggarticks",[2]; [22],80
same,"Plant response rating, Beggarticks",[2]; [23],65
same,"Plant response rating, Beggarticks",[2]; [24],70
same,"Plant response rating, Panicum, Fall",[3]; [17],70
same,"Plant response rating, Panicum, Fall",[3]; [18],95
same,"Plant response rating, Panicum, Fall",[3]; [19],80
same,"Plant response rating, Panicum, Fall",[3]; [20],98
same,"Plant response rating, Panicum, Fall",[3]; [21],30
same,"Plant response rating, Panicum, Fall",[3]; [22],70
same,"Plant response rating, Panicum, Fall",[3]; [23],10
same,"Plant response rating, Panicum, Fall",[3]; [24],60
same,"Plant response rating, Crabgrass, Large",[4]; [25],0
same,"Plant response rating, Crabgrass, Large",[4]; [26],15
same,"Plant response rating, Crabgrass, Large",[4]; [27],0
same,"Plant response rating, Crabgrass, Large",[4]; [28],0
same,"Plant response rating, Morningglory",[5]; [25],30
same,"Plant response rating, Morningglory",[5]; [26],40
same,"Plant response rating, Morningglory",[5]; [27],0
same,"Plant response rating, Morningglory",[5]; [28],0
same,"Plant response rating, Surinam Grass",[6]; [25],5
same,"Plant response rating, Surinam Grass",[6]; [26],50
same,"Plant response rating, Surinam Grass",[6]; [27],5
same,"Plant response rating, Surinam Grass",[6]; [28],20
same,"Plant response rating, Sandbur",[7]; [17],50
same,"Plant response rating, Sandbur",[7]; [18],10
same,"Plant response rating, Sandbur",[7]; [19],60
same,"Plant response rating, Sandbur",[7]; [20],70
same,"Plant response rating, Sandbur",[7]; [21],25
same,"Plant response rating, Sandbur",[7]; [22],40
same,"Plant response rating, Sandbur",[7]; [23],0
same,"Plant response rating, Sandbur",[7]; [24],0
same,"Plant response rating, Goosegrass",[8]; [25],10
same,"Plant response rating, Goosegrass",[8]; [26],10
same,"Plant response rating, Goosegrass",[8]; [27],5
same,"Plant response rating, Goosegrass",[8]; [28],5
same,"Plant response rating, Barnyardgrass",[9]; [17],25
same,"Plant response rating, Barnyardgrass",[9]; [18],20
same,"Plant response rating, Barnyardgrass",[9]; [19],20
same,"Plant response rating, Barnyardgrass",[9]; [20],15
same,"Plant response rating, Barnyardgrass",[9]; [21],20
same,"Plant response rating, Barnyardgrass",[9]; [22],15
same,"Plant response rating, Barnyardgrass",[9]; [23],0
same,"Plant response rating, Barnyardgrass",[9]; [24],15
same,"Plant response rating, Johnsongrass",[10]; [25],0
same,"Plant response rating, Johnsongrass",[10]; [26],0
same,"Plant response rating, Johnsongrass",[10]; [27],0
same,"Plant response rating, Johnsongrass",[10]; [28],0
same,"Plant response rating, Velvetleaf",[11]; [25],20
same,"Plant response rating, Velvetleaf",[11]; [26],80
same,"Plant response rating, Velvetleaf",[11]; [27],0
same,"Plant response rating, Velvetleaf",[11]; [28],0
same,"Plant response rating, Kochia",kochia (Kochia scoparia); [17],90
same,"Plant response rating, Kochia",kochia (Kochia scoparia); [18],60
same,"Plant response rating, Kochia",kochia (Kochia scoparia); [19],95
same,"Plant response rating, Kochia",kochia (Kochia scoparia); [20],90
same,"Plant response rating, Kochia",kochia (Kochia scoparia); [21],90
same,"Plant response rating, Kochia",kochia (Kochia scoparia); [22],95
same,"Plant response rating, Kochia",kochia (Kochia scoparia); [23],0
same,"Plant response rating, Kochia",kochia (Kochia scoparia); [24],0
same,"Plant response rating, Foxtail, Giant",[12]; [25],40
same,"Plant response rating, Foxtail, Giant",[12]; [26],90
same,"Plant response rating, Foxtail, Giant",[12]; [27],0
same,"Plant response rating, Foxtail, Giant",[12]; [28],5
same,"Plant response rating, Nightshade",[13]; [25],15
same,"Plant response rating, Nightshade",[13]; [26],100
same,"Plant response rating, Nightshade",[13]; [27],0
same,"Plant response rating, Nightshade",[13]; [28],0
same,"Plant response rating, Ragweed",[14]; [17],80
same,"Plant response rating, Ragweed",[14]; [18],90
same,"Plant response rating, Ragweed",[14]; [19],90
same,"Plant response rating, Ragweed",[14]; [20],100
same,"Plant response rating, Ragweed",[14]; [21],75
same,"Plant response rating, Ragweed",[14]; [22],80
same,"Plant response rating, Ragweed",[14]; [23],25
same,"Plant response rating, Ragweed",[14]; [24],65
same,"Plant response rating, Nutsedge, Yellow",[15]; [25],65
same,"Plant response rating, Nutsedge, Yellow",[15]; [26],50
same,"Plant response rating, Nutsedge, Yellow",[15]; [27],0
same,"Plant response rating, Nutsedge, Yellow",[15]; [28],5
same,"Plant response rating, Arrowleaf Sida",[16]; [17],60
same,"Plant response rating, Arrowleaf Sida",[16]; [18],40
same,"Plant response rating, Arrowleaf Sida",[16]; [19],70
same,"Plant response rating, Arrowleaf Sida",[16]; [20],65
same,"Plant response rating, Arrowleaf Sida",[16]; [21],30
same,"Plant response rating, Arrowleaf Sida",[16]; [22],40
same,"Plant response rating, Arrowleaf Sida",[16]; [23],0
same,"Plant response rating, Arrowleaf Sida",[16]; [24],0
